Entries after “also recorded” stand apart in the source; their conditions may differ.
Columns and labels:
B. anthracis DHPS [1] = target: T1, B. anthracis DHPS (Bacillus anthracis, UniProt Q81VW8); experiment: biochemical; format: biochemical
B. anthracis DHPS [2] = target: T1, B. anthracis DHPS; format: binding

T1 sequence (Q81VW8 1-280): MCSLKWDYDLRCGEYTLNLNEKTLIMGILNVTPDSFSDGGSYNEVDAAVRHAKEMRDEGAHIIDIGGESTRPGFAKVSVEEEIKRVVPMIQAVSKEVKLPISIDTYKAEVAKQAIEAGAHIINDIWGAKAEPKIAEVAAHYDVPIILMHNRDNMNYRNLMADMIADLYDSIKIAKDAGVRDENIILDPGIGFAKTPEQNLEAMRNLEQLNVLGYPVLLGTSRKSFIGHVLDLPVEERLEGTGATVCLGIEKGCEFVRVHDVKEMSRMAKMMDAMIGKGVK

Structure (SMILES): Nc1nc2[nH]c(S)nc2c(=O)[nH]1 [Compound 5]
- percentage inhibition of DHPS (B. anthracis DHPS [1]): did not show inhibition; also recorded: little or no inhibition

Structure (SMILES): Nc1nc2c(c(=O)[nH]1)N=C(CO)CN2 [Control, 6-hydroxymethyl-7,8-dihydropterin]
- IC50 (B. anthracis DHPS [1]): 58.4 µM
- inhibition at 250 µM (B. anthracis DHPS [1]; read-out: B. anthracis % inhibition): 60%

Structure (SMILES): Nc1ccc(C(=O)O)cc1 [pABA, p-aminobenzoic acid]
- binding (heats of binding) by ITC (B. anthracis DHPS [2]): does not bind; also recorded: No heats of binding could be detected

— publication PMC2804029 (Journal of medicinal chemistry, 2010)
